Here are results for 2 compounds from ChEMBL document CHEMBL4145472, “Novel donepezil-like N-benzylpyridinium salt derivatives as AChE inhibitors and their corresponding dihydropyridine "bio-oxidizable" prodrugs: Synthesis, biological evaluation and structure-activity relationship” (Eur J Med Chem, 2018).

One series can be described thus: in vitro. The settings on record: PAMPA, pH 7.4. In general terms: PAMPA measures passive passage across an artificial lipid membrane.
Series [1] can be described thus: Half life in 2% riboflavine solution in PBS at 25 uM by HPLC-UV analysis. It counts as physicochemical. The settings on record: buffer, 25 µM.
A further series addresses Acetylcholinesterase (Homo sapiens, UniProt P22303). Put plainly: Inhibition of human erythrocyte AChE using acetylthiocholine iodide as substrate preincubated for 5 mins followed by substrate addition measured every minute for 10 mins by Ellman's method. In general terms: DTNB colorimetry detects thiols as they appear.
A further series addresses Cholinesterase (Equus caballus, UniProt P81908).

Acetylcholinesterase, sequence (P22303 whole entry): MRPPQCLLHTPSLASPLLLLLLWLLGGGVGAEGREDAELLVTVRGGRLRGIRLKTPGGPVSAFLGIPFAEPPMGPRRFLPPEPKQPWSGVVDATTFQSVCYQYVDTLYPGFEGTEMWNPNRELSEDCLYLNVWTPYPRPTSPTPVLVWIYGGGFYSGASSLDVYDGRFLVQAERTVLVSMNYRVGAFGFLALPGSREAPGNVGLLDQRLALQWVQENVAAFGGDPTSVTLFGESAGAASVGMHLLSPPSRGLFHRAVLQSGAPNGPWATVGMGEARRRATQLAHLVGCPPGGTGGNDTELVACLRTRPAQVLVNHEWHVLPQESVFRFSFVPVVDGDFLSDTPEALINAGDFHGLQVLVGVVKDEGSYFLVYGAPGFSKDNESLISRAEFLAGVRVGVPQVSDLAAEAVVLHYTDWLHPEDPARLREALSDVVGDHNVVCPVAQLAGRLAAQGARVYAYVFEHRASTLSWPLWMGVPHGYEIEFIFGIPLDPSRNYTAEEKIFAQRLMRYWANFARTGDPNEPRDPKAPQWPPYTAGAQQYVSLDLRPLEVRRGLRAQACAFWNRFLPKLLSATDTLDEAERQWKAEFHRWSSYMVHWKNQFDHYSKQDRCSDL
Cholinesterase, sequence (P81908 whole entry): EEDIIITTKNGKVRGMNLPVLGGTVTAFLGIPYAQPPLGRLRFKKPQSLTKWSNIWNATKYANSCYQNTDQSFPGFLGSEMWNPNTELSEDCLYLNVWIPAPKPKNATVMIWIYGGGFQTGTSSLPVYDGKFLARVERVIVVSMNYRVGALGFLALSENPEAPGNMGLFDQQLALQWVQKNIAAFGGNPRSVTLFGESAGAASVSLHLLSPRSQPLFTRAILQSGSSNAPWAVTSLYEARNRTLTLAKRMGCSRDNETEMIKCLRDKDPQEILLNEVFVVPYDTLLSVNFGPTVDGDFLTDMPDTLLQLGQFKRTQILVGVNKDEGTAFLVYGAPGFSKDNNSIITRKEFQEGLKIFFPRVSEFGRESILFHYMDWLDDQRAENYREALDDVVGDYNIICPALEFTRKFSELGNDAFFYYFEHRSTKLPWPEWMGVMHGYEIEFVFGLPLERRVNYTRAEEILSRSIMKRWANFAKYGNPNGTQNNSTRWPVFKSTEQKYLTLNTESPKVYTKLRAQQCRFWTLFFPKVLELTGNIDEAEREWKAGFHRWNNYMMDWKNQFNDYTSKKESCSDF

As a reminder, the Papp is a coefficient for how fast a substance crosses the barrier. Lower therefore signals poor permeation. For the compound `Cn1c(=O)c2[nH]cnc2n(C)c1=O.O` [THEOPHYLLINE], the apparent permeability (Papp) at 250 µM in “in vitro” fell in the range of 0.4 to 0.66 ×10⁻⁶ cm/s.

Usually IC50 stands for the concentration at which inhibition is half-maximal. Read a high IC50 as weaker potency. `COc1cc2c(cc1OC)C(=O)C(CC1C=CN(Cc3cccc(Cl)c3)C=C1C(N)=O)C2` (stereo in doubt; 23h-B) returned a t1/2 in series [1] of 17.7 min. Besides, the IC50 at Acetylcholinesterase was 27 µM; against Cholinesterase, 19.9 µM.
